Measured values reported in US10807992B2, “Single enantiomer antiparasitic compounds” (priority 2017, dated 2020).
Where two headings read alike, the source gives them in different places.

System: Aedes aegypti
Assay: In vitro contact activity against adult mosquitoes (coated vial)
Experimental: Aedes aegypti (Louisiana Biologicals Inc., New Orleans, La.) eggs were allowed to hatch, close, and age between 3-5 days in an environmental chamber at 26° C., 80% humidity with light/dark cycles.
For mosquito assays, an aliquot from each compound stock was added to an acetone/triton solution to achieve the desired top doses for the study. Serial dilutions were conducted from the top dose (i.e. 50 ppm) to achieve the desired titration range for EC50 and EC90 determination. The final DMSO concentration in each test vial was 0.5%. A 459 μL aliquot of each compound formulation was transferred to a vial and vials were immediately placed on an unheated roller unit to allow for an even coating of the vial walls. The vials were loosely capped and allowed to dry for a minimum of four hours in a chemical fume hood.
For both contact and ingestion assays, five female Aedes aegypti adults were added to each vial or cage. The test vials for contact assays were held in an environmental chamber at 24° C., 80% humidity with light/dark cycles (12 hours each). The cages for mosquito ingestion assays were held in a temperature-controlled artificial feeding apparatus to allow continual access to organic bovine blood containing the desired concentration of compound. Fresh aliquots of compound-spiked bovine blood were provided daily for the duration of the study.
Mosquitoes showing no movement or mosquitoes that were knocked down were noted as dead. Results from trial 1 and trial 2 contact assays are shown in Tables 12 and 13, respectively and the results from trial 3 mosquito ingestion assay is shown in table 14.
For the mosquito contact and ingestion assays, each replicate contained 5 mosquitoes. For ease of calculation, the two replicates were added to equal a total of 10 mosquitoes.

O=C(CC(F)(F)F)N1CC2(C1)OCc1cc(C3=NSC(c4cc(Cl)c(F)c(Cl)c4)(C(F)(F)F)C3)ccc12 (racemic) [C1 racemate, 1-[6-[5-(3,5-dichloro-4-fluoro-phenyl)-5-(trifluoromethyl)-4H-isothiazol-3-yl]spiro[1H-isobenzofuran-3,3′-azetidine]-1′-yl]-3,3,3-trifluoro-propan-1-one]
70%: mortality at 3.125 µM (24 h, read-out: % Mortality R1 + R2, Trial 2, contact assay, dose 3.125 μM, 24 hr)
0%: mortality at 0.049 µM (0.5 h, read-out: % Mortality R1 + R2, Trial 1, contact assay, dose 0.049 μM, 0.5 Hr) | mortality at 0.2 µM (0.5 h, read-out: % Mortality R1 + R2, Trial 1, contact assay, dose 0.20 μM, 0.5 Hr) | mortality at 0.78 µM (0.5 h, read-out: % Mortality R1 + R2, Trial 1, contact assay, dose 0.78 μM, 0.5 Hr) | mortality at 3.125 µM (0.5 h, read-out: % Mortality R1 + R2, Trial 1, contact assay, dose 3.125 μM, 0.5 Hr) | mortality at 12.5 µM (0.5 h, read-out: % Mortality R1 + R2, Trial 1, contact assay, dose 12.5 μM, 0.5 Hr) | mortality at 50 µM (0.5 h, read-out: % Mortality R1 + R2, Trial 1, contact assay, dose 50 μM, 0.5 Hr) | mortality at 0.049 µM (0.5 h, read-out: % Mortality R1 + R2, Trial 2, contact assay, dose 0.049 μM, 0.5 Hr) | mortality at 0.2 µM (0.5 h, read-out: % Mortality R1 + R2, Trial 2, contact assay, dose 0.20 μM, 0.5 Hr) | mortality at 0.78 µM (0.5 h, read-out: % Mortality R1 + R2, Trial 2, contact assay, dose 0.78 μM, 0.5 Hr) | mortality at 3.125 µM (0.5 h, read-out: % Mortality R1 + R2, Trial 2, contact assay, dose 3.125 μM, 0.5 Hr) | mortality at 12.5 µM (0.5 h, read-out: % Mortality R1 + R2, Trial 2, contact assay, dose 12.5 μM, 0.5 Hr) | mortality at 50 µM (0.5 h, read-out: % Mortality R1 + R2, Trial 2, contact assay, dose 50 μM, 0.5 Hr) | mortality at 0.049 µM (1 h, read-out: % Mortality R1 + R2, Trial 1, contact assay, dose 0.049 μM, 1 hr) | mortality at 0.2 µM (1 h, read-out: % Mortality R1 + R2, Trial 1, contact assay, dose 0.20 μM, 1 hr) | mortality at 0.78 µM (1 h, read-out: % Mortality R1 + R2, Trial 1, contact assay, dose 0.78 μM, 1 hr) | mortality at 3.125 µM (1 h, read-out: % Mortality R1 + R2, Trial 1, contact assay, dose 3.125 μM, 1 hr) | mortality at 12.5 µM (1 h, read-out: % Mortality R1 + R2, Trial 1, contact assay, dose 12.5 μM, 1 hr) | mortality at 50 µM (1 h, read-out: % Mortality R1 + R2, Trial 1, contact assay, dose 50 μM, 1 hr) | mortality at 0.049 µM (1 h, read-out: % Mortality R1 + R2, Trial 2, contact assay, dose 0.049 μM, 1 hr) | mortality at 0.2 µM (1 h, read-out: % Mortality R1 + R2, Trial 2, contact assay, dose 0.20 μM, 1 hr) | mortality at 0.78 µM (1 h, read-out: % Mortality R1 + R2, Trial 2, contact assay, dose 0.78 μM, 1 hr) | mortality at 3.125 µM (1 h, read-out: % Mortality R1 + R2, Trial 2, contact assay, dose 3.125 μM, 1 hr) | mortality at 12.5 µM (1 h, read-out: % Mortality R1 + R2, Trial 2, contact assay, dose 12.5 μM, 1 hr) | mortality at 50 µM (1 h, read-out: % Mortality R1 + R2, Trial 2, contact assay, dose 50 μM, 1 hr) | mortality at 0.049 µM (6 h, read-out: % Mortality R1 + R2, Trial 1, contact assay, dose 0.049 μM, 6 hr) | mortality at 0.2 µM (6 h, read-out: % Mortality R1 + R2, Trial 1, contact assay, dose 0.20 μM, 6 hr) | mortality at 0.78 µM (6 h, read-out: % Mortality R1 + R2, Trial 1, contact assay, dose 0.78 μM, 6 hr) | mortality at 3.125 µM (6 h, read-out: % Mortality R1 + R2, Trial 1, contact assay, dose 3.125 μM, 6 hr) | mortality at 12.5 µM (6 h, read-out: % Mortality R1 + R2, Trial 1, contact assay, dose 12.5 μM, 6 hr) | mortality at 0.049 µM (6 h, read-out: % Mortality R1 + R2, Trial 2, contact assay, dose 0.049 μM, 6 hr) | mortality at 0.2 µM (6 h, read-out: % Mortality R1 + R2, Trial 2, contact assay, dose 0.20 μM, 6 hr) | mortality at 0.78 µM (6 h, read-out: % Mortality R1 + R2, Trial 2, contact assay, dose 0.78 μM, 6 hr) | mortality at 3.125 µM (6 h, read-out: % Mortality R1 + R2, Trial 2, contact assay, dose 3.125 μM, 6 hr) | mortality at 0.049 µM (12 h, read-out: % Mortality R1 + R2, Trial 1, contact assay, dose 0.049 μM, 12 hr) | mortality at 0.2 µM (12 h, read-out: % Mortality R1 + R2, Trial 1, contact assay, dose 0.20 μM, 12 hr) | mortality at 0.78 µM (12 h, read-out: % Mortality R1 + R2, Trial 1, contact assay, dose 0.78 μM, 12 hr) | mortality at 3.125 µM (12 h, read-out: % Mortality R1 + R2, Trial 1, contact assay, dose 3.125 μM, 12 hr) | mortality at 12.5 µM (12 h, read-out: % Mortality R1 + R2, Trial 1, contact assay, dose 12.5 μM, 12 hr) | mortality at 0.049 µM (12 h, read-out: % Mortality R1 + R2, Trial 2, contact assay, dose 0.049 μM, 12 hr) | mortality at 0.2 µM (12 h, read-out: % Mortality R1 + R2, Trial 2, contact assay, dose 0.20 μM, 12 hr) | mortality at 0.78 µM (12 h, read-out: % Mortality R1 + R2, Trial 2, contact assay, dose 0.78 μM, 12 hr) | mortality at 3.125 µM (12 h, read-out: % Mortality R1 + R2, Trial 2, contact assay, dose 3.125 μM, 12 hr) | mortality at 0.049 µM (24 h, read-out: % Mortality R1 + R2, Trial 1, contact assay, dose 0.049 μM, 24 hr) | mortality at 0.2 µM (24 h, read-out: % Mortality R1 + R2, Trial 1, contact assay, dose 0.20 μM, 24 hr) | mortality at 0.78 µM (24 h, read-out: % Mortality R1 + R2, Trial 1, contact assay, dose 0.78 μM, 24 hr) | mortality at 3.125 µM (24 h, read-out: % Mortality R1 + R2, Trial 1, contact assay, dose 3.125 μM, 24 hr) | mortality at 0.049 µM (24 h, read-out: % Mortality R1 + R2, Trial 2, contact assay, dose 0.049 μM, 24 hr) | mortality at 0.2 µM (24 h, read-out: % Mortality R1 + R2, Trial 2, contact assay, dose 0.20 μM, 24 hr) | mortality at 0.78 µM (24 h, read-out: % Mortality R1 + R2, Trial 2, contact assay, dose 0.78 μM, 24 hr) | mortality at 0.049 µM (48 h, read-out: % Mortality R1 + R2, Trial 2, contact assay, dose 0.049 μM, 48 hr) | mortality at 0.78 µM (48 h, read-out: % Mortality R1 + R2, Trial 2, contact assay, dose 0.78 μM, 48 hr)
80%: mortality at 50 µM (6 h, read-out: % Mortality R1 + R2, Trial 1, contact assay, dose 50 μM, 6 hr) | mortality at 12.5 µM (12 h, read-out: % Mortality R1 + R2, Trial 2, contact assay, dose 12.5 μM, 12 hr)
10%: mortality at 12.5 µM (6 h, read-out: % Mortality R1 + R2, Trial 2, contact assay, dose 12.5 μM, 6 hr)
40%: mortality at 0.049 µM (48 h, read-out: % Mortality R1 + R2, Trial 1, contact assay, dose 0.049 μM, 48 hr) | mortality at 0.2 µM (48 h, read-out: % Mortality R1 + R2, Trial 2, contact assay, dose 0.20 μM, 48 hr)
30%: mortality at 0.78 µM (48 h, read-out: % Mortality R1 + R2, Trial 1, contact assay, dose 0.78 μM, 48 hr)
90%: mortality at 12.5 µM (24 h, read-out: % Mortality R1 + R2, Trial 1, contact assay, dose 12.5 μM, 24 hr) | mortality at 3.125 µM (48 h, read-out: % Mortality R1 + R2, Trial 1, contact assay, dose 3.125 μM, 48 hr)
20%: mortality at 0.2 µM (48 h, read-out: % Mortality R1 + R2, Trial 1, contact assay, dose 0.20 μM, 48 hr)
100%: mortality at 50 µM (6 h, read-out: % Mortality R1 + R2, Trial 2, contact assay, dose 50 μM, 6 hr) | mortality at 50 µM (12 h, read-out: % Mortality R1 + R2, Trial 1, contact assay, dose 50 μM, 12 hr) | mortality at 50 µM (12 h, read-out: % Mortality R1 + R2, Trial 2, contact assay, dose 50 μM, 12 hr) | mortality at 50 µM (24 h, read-out: % Mortality R1 + R2, Trial 1, contact assay, dose 50 μM, 24 hr) | mortality at 12.5 µM (24 h, read-out: % Mortality R1 + R2, Trial 2, contact assay, dose 12.5 μM, 24 hr) | mortality at 50 µM (24 h, read-out: % Mortality R1 + R2, Trial 2, contact assay, dose 50 μM, 24 hr) | mortality at 12.5 µM (48 h, read-out: % Mortality R1 + R2, Trial 1, contact assay, dose 12.5 μM, 48 hr) | mortality at 50 µM (48 h, read-out: % Mortality R1 + R2, Trial 1, contact assay, dose 50 μM, 48 hr) | mortality at 3.125 µM (48 h, read-out: % Mortality R1 + R2, Trial 2, contact assay, dose 3.125 μM, 48 hr) | mortality at 12.5 µM (48 h, read-out: % Mortality R1 + R2, Trial 2, contact assay, dose 12.5 μM, 48 hr) | mortality at 50 µM (48 h, read-out: % Mortality R1 + R2, Trial 2, contact assay, dose 50 μM, 48 hr)
